Data set [1] deals with Patient with Comorbid Generalized Anxiety Disorder, Major Depression, and ADHD. In words: Case report Patient 6: VYVANSE added to PAXIL. Here is the method: The patient was maintained on PAXIL (paroxetine) 30 mg per day following a significant comorbid major depressive episode associated with anxiety symptoms, and a history consistent with Generalized Anxiety Disorder. […] However, after beginning a new job with more challenging responsibilities, the patient was unable to compensate for such deficits and a pattern of obsessive ruminations emerged, often involving work. In addition to perseverative and obsessive thinking, the patient experienced heightened anxiety and mild depressive symptoms, including fatigue, low mood, and amotivation, especially while at work. After discussing medication options and side effect concerns, VYVANSE was initiated to address underlying ADHD symptoms, which were felt to drive the patient's perseverative thinking, anxious ruminations, and low mood. […] PAXIL was maintained at 30 mg per day.

Data set [2] concerns patient with Binge Eating Disorder, Medication-Induced Cognitive Problems, and Fatigue. As to the kind of experiment: Case report Example 5: VYVANSE added to existing regimen. Type of data set: in vivo, human. From the text: The patient previously has been treated with therapy and has had multiple prior medication trials, either discontinued due to lack of efficacy or side effects, including ZOLOFT (sertraline), CELEXA (citalopram), PROZAC (fluoxetine), LEXAPRO (escitalopram), WELLBUTRIN SR (bupropion HCl), NORTRIPTYLINE, ATIVAN (lorazepam), ABILIFY (aripiprazole), RISPERDAL (risperidone), SEROQUEL (quetiapine), LYRICA (pregabalin), and RITALIN (methylphenidate). Selective serotonin reuptake inhibitors exacerbated binge eating symptoms and caused problematic weight gain. For treatment of depression with comorbid anxiety, binge-eating, and weight-gain related to binge eating symptoms, the patient was maintained on a medication regimen that included TOPAMAX (topiramate) 175 mg in the morning and 200 mg at night, LAMICTAL (lamotrigine) 200 mg in the morning, CYTOMEL (liothyronine) 25 mcg per day, KLONOPIN (clonazepam) 0.25 mg at bed time, and NEURONTIN (gabapentin) 600 mg at bedtime. […] Given prior poor response to a number of different classes of medication trials, off-label use of VYVANSE was initiated at 30 mg each morning to target a constellation of symptoms, including symptoms of major depression, binge-eating disorder, fatigue, and concentration problems. VYVANSE was maintained at 30 mg each morning for weeks before being discontinued due to adverse effects. […] However, there appeared to be no benefit on the patient's depressed mood, amotivation, and feelings of hopelessness.
This case exemplifies the clinical benefit of lisdexamfetamine dimesylate on binge-eating symptoms and potentially on weight-gain related to binging (body weight was not obtained), though longer-term treatment was cut short by adverse effects at the 30 mg dosage form. Given the number of failed prior trials, off-label use of VYVANSE was clinically indicated, especially given the severity of binge eating behavior.

Data set [3] has as its system Patient with ADHD, Generalized Anxiety Disorder, and Obsessive-Compulsive Behavior. As to the kind of experiment: Case report Example 3: VYVANSE. It counts as in vivo, human. An excerpt:
The patient is a non-geriatric adult diagnosed with a history of ADHD, inattentive type, and comorbid Generalized Anxiety Disorder, though had no prior treatment. Presenting ADHD symptoms included difficulty sustaining attention and attending to details, difficulty organizing tasks with tendencies toward avoidance, distractibility, and problems finishing tasks that have been initiated. Symptoms of Generalized Anxiety Disorder included frequent and intense ruminative worrying, feeling overly fatigued, muscle tension and intermittent problems with sleep. […] The patient was started on VYVANSE 30 mg in the morning, along with TRAZODONE 50 mg at bedtime. VYVANSE was maintained at 30 mg once daily in the morning for one week, followed by one week at 50 mg per day, and then 70 mg per day, taken in the morning. […] The patient maintained treatment on VYVANSE at 70 mg per day for 10 weeks; TRAZODONE 50 mg at bedtime was discontinued after 4 weeks as sleep patterns had sufficiently normalized. […] The patient previously felt little or no control around such worrying, ruminative behavior and speculated that it caused significant mental and even physical fatigue.
Stimulant medications have traditionally been associated with causing or worsening anxiety symptoms (for instance, being ‘anxiogenic’).

For data set [4], the system named is Patient with Comorbid Depressive Disorders and Binge Eating Behavior. In words: Case report Example 4: VYVANSE. Type of data set: in vivo, human. An excerpt: The patient also endorsed symptoms of ADHD, inattentive type, primarily around problems with organizing tasks, procrastination of work activities, and problems completing projects, though such ‘inattention’ symptoms were considered as clinically less detrimental than feeling chronically depressed, lacking motivation or interest in work or social activities, feeling fatigued and sometimes guilty, and having gained weight over several years due to ‘emotional eating’ behavior. The patient had received therapy in the past to address depressive episodes and associated life stressors, with modest benefit. The patient also described a history of ‘emotional eating’ that could occur at any time of day though more often in the late afternoons or early evenings. Such ‘emotional eating’ was often triggered by stressful situations or events, accompanied by an urge to eat, and would typically lead to excess consumption of carbohydrate-based foods. In recent years, the patient reported having gained over 10% body weight and noted a general trend toward increasing emotional eating and binging behavior. More severe binges occurred at least several times per month over a stretch of several years, though were much less common than ‘emotional eating’ that was milder in nature and occurred nearly daily. […] The patient was maintained on VYVANSE for 10 weeks at 50 mg per day. […] Symptoms of emotional eating were improved in the evenings as well, with less than one per week on average as compared to most evenings previously. […] The organization and execution of work-related tasks improved during the course of treatment as well.
The patient also began a trend of weight loss on account of decreased emotional eating and binging. The patient's ADHD was also clinically relevant, which is the primary reason VYVANSE was chosen as the initial medication treatment, though it was not the reason for which evaluation and treatment was sought and of secondary importance with regard to symptoms causing the patient difficulty and concern. […] Binge-eating behavior, largely taking the form of ‘self-soothing’ eating activity with potentially serious risks in this patient insofar as it was causing steady increased weight gain to the point of obesity), responded remarkably well to treatment with VYVANSE.

The conditions of data set [5]: once per day dosing; cited from earlier work.
The subject of data set [6] is Patient with Binge Eating Disorder and Major Depressive Disorders. In words: Case report Patient 2: lisdexamfetamine dimesylate monotherapy.
In data set [7] the test system is Patient with Major Depressive Disorders and Binge Eating Disorder. In words: Case report Patient 1: lisdexamfetamine dimesylate added to ZOLOFT.

In the case of `Fc1ccc([C@@H]2CCNC[C@H]2COc2ccc3c(c2)OCO3)cc1` [PAXIL, paroxetine], the “depressive and anxiety symptoms” value in data set [1] (PAXIL 30 mg per day) is recorded as “rapidly stabilized”.
Take `CC1(C)O[C@@H]2[C@@H](CO[C@@]3(COS(N)(=O)=O)OC(C)(C)O[C@@H]23)O1` [TOPAMAX, topiramate]: in data set [2] (TOPAMAX 175 mg in the morning and 200 mg at night, clinically insufficient), the binge eating behavior result is given as “helped reduce”. The tolerability result in data set [2] (in vivo) is listed as “poorly tolerated at higher doses due to cognitive side effects”.
With `CS(=O)(=O)O.CS(=O)(=O)O.C[C@@H](Cc1ccccc1)NC(=O)[C@@H](N)CCCCN` [lisdexamfetamine dimesylate, (2S)-2,6-diamino-N-[(1S)-1-methyl-2-phenylethyl]hexanamide dimethanesulfonate], the “compulsive ruminating and worrying” value in data set [3] (70 mg per day) is recorded as “highly significant improvement”. For the same compound, in data set [3] (70 mg per day, compared to previous baseline function), the “ability to sustain attention and attend to details, organize and finish projects, process information” value was “significantly enhanced”. Further, the inattention symptoms result in data set [3] (after 10 weeks at 70 mg per day) is recorded as “only mildly affected”. Besides, the “'wear off' during treatment of Generalized Anxiety Disorder symptoms” value in data set [3] (for the duration of the day) was “no problematic ‘wear off’”. In data set [3] (within the first week, 30 mg in the morning with TRAZODONE 50 mg at bedtime), the “ADHD and Generalized Anxiety Disorder symptoms” value was “positive effect”. The adverse effects entry in data set [4] (30 mg per day for two weeks, increased to 50 mg per day) is “without any adverse effects”. Further, in data set [4] (50 mg daily), the “emotional eating behavior in the afternoon” value is “abrupt and sustained cessation”. For the same compound, in data set [4] (10 weeks at 50 mg per day), the depressive symptoms result is listed as “significant amelioration”. The major binges result in data set [4] (at any point while taking VYVANSE, before at least several times per month) is recorded as “no reported major binges”. For the same compound, the “organization and execution of work-related tasks” value in data set [4] (during the course of treatment) was “improved”. Further, the “emotional eating in the evenings” value in data set [4] (on average, compared to most evenings previously) was “less than one”. Moreover, the weight lost in data set [4] (over 2½ months of treatment) is reported as 6-7 pounds. For the same compound, in data set [2] (30 mg each morning), the “absolute binges per week” value was “fewer”; the “binge-eating days per week” value was “fewer”; the “depressed mood, amotivation, and feelings of hopelessness” value is given as “no benefit”; the “fatigue and concentration throughout the day” value was “improvement”. Moreover, the urge to binge result in data set [2] (30 mg each morning, during the time of treatment) is given as “notably reduced”. The “adverse effects leading to discontinuation” value in data set [2] (30 mg each morning, with TOPAMAX, LAMICTAL, CYTOMEL, KLONOPIN, NEURONTIN) is “excessive appetite suppression and visual blurring”. Also, in data set [1] (30 mg per day for one week, titrated to 50 mg per day), the adverse effect entry is reported as “without adverse effect”. In addition, the “ADHD, Generalized Anxiety Disorder, and Major Depressive Disorder symptoms” value in data set [1] (ensuing 9 weeks, with PAXIL 30 mg per day) is listed as “improvement”. The weight loss in data set [1] (over 2 months of treatment, VYVANSE 50 mg per day with PAXIL 30 mg per day) is 4-5%. Further, in data set [1] (with PAXIL 30 mg per day), the “mood, motivation and energy” value is on record as “improved”; the worrying entry is listed as “substantial reduction”. For the same compound, the “time after administration for which significant effects have been demonstrated” value in data set [5] is given as “up to 12 hours”. In addition, in data set [6] (Patient 2), the ADHD symptoms entry is “as effective as […] XR”. This compound also returned a triglyceride levels in data set [6] (end of 5 weeks of treatment, 271 mg/dL prior to treatment) of 160 mg/dL. Besides, the binging episodes result in data set [6] (first 2 weeks of treatment, before at least two days per week) is listed as “only once”. For the same compound, the “depressive symptoms (depressed mood, interest level, sleep quality, physical fatigue)” value in data set [6] (monotherapy, about 10 weeks) is “overall improvement”. The “total body weight lost” value in data set [6] (obese patient, about 10 weeks on lisdexamfetamine dimesylate (70 mg from day 3)) is “approximately 7%”. In data set [6] (subsequent 8 weeks of treatment), the binging episodes entry is recorded as “stopped entirely”. For the same compound, the depressive symptoms result in data set [7] (8 weeks of maintenance on 70 mg in addition to 100 mg ZOLOFT (sertraline)) was “full remission”. Moreover, in data set [7] (for the 8 weeks at 70 mg daily along with 100 mg ZOLOFT), the binging days entry is “no more than 3”. In data set [7] (from approximately 12 or more to no more than 3 per month), the “reduction of binging eating days per month” value is reported as “approximately 75%”. In addition, the “binge eating days per month” value in data set [7] (while taking lisdexamfetamine dimesylate, before approximately 12 or more per month) is on record as “no more than 3 per month”.

The record behind these values is US8318813B2, “Method of treating binge eating disorder” (LCS Group, LLC, priority 2007, dated 2012).
